Columns and labels:
Format in all cases: in vivo
[1] = tested on: rice leafroller (Cnaphalocrocis medinalis); assay: Insecticidal effect on rice leafroller (Test Example 3); settings: 500 ppm, 25° C., humidity 70%; for Insecticidal effect, Test Example 3: rice lamina immersed; for Insecticidal effect, Test Example 3 / Insecticidal effect on rice leafroller (Test Example 3), judged grade: four days after inoculation; for Insecticidal effect on rice leafroller (Test Example 3), judged grade / Insecticidal effect (Test Example 3), judged from mortality: rice lamina dip; for Insecticidal effect on rice leafroller (Test Example 3), judged grade: third-instar larvae; for Insecticidal effect (Test Example 3), judged from mortality: 4 days after inoculation
Method in brief: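 Insecticidal effect is judged by a predefined criterion from dead/alive counts four days after infesting air-dried lamina with third-instar larvae, kept on moistened filter paper at 25° C, 70% humidity.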

[2] = tested on: diamondback moth (Plutella xylostella); assay: Insecticidal effect on diamondback moth (Test Example 1); settings: for Insecticidal effect, Test Example 1 / Insecticidal effect (Test Example 1), judged from mortality: diamondback moth; for Insecticidal effect on diamondback moth (Test Example 1), judged grade: mortality judged according to the criterion shown in Test Example 1; for Insecticidal effect (Test Example 1), judged from mortality: judged by the criterion of Test Example 1
Method in brief: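 Triplicate groups of 10 insects were scored: six days after immersion of oviposited Chinese cabbage seedlings and holding at 25 °C post air-drying, hatched larvae were counted. Mortality derived from these counts and insecticidal effect judged by a set criterion.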

[3] = tested on: common cutworm (Spodoptera Litura); assay: Insecticidal effect on common cutworm (Test Example 2); settings: 500 ppm, 25° C.; for Insecticidal effect, Test Example 2: cabbage leaf immersed; for Insecticidal effect, Test Example 2 / Insecticidal effect on common cutworm (Test Example 2), judged grade: eight days after inoculation; for Insecticidal effect on common cutworm (Test Example 2), judged grade / Insecticidal effect (Test Example 2), judged from mortality: cabbage leaf dip; for Insecticidal effect on common cutworm (Test Example 2), judged grade: second-instar larvae; for Insecticidal effect (Test Example 2), judged from mortality: 8 days after inoculation
Method in brief: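 Mortality was scored 8 days post-inoculation, using three groups of 10 second-instar larvae kept at 25 °C in closed 9 cm dishes on air-dried treated material. The insecticidal effect was graded from calculated mortality by a set criterion.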

[4] = third-instar larvae of rice leafroller
[5] = judged by the mortality criterion of Test Example 1
[6] = second-instar larvae of common cutworm
[7] = rice leafroller third-instar larvae
[8] = mortality judged by criterion of Test Example 1
[9] = common cutworm second-instar larvae

Row | SMILES | Insecticidal effect, Test Example 3 [1, 4] | Insecticidal effect, Test Example 1 [2, 5] | Insecticidal effect, Test Example 2 [3, 6] | Insecticidal effect, Test Example 3 [1, 7] | Insecticidal effect, Test Example 1 [2, 8] | Insecticidal effect, Test Example 2 [3, 9] | further results
1 | Cc1cc(OC(F)F)ccc1NC(=O)c1c(Br)cccc1C(=O)NC(C)C [compound 325] | A (100) | A (100) | A (100) | – | – | – | –
2 | Cc1cc(C(F)(F)C(F)(F)F)ccc1NC(=O)c1cccc(Cl)c1C(=O)NC(C)(C)CO [compound 1317] | – | – | – | A (100) | A (100) | C (89-80) | –
3 | Cc1cc(OC(F)(F)Br)ccc1NC(=O)c1cccc(Cl)c1C(=O)NC(C)C [compound 140] | A (100) | A (100) | A (100) | – | – | – | –
4 | CC(C)NC(=O)c1cccc(Cl)c1C(=O)Nc1ccc(OC(F)(F)C(F)OC(F)(F)C(F)(F)C(F)(F)F)cc1 (stereo not drawn) [compound 201] | A (100) | A (100) | B (99-90) | – | – | – | –
5 | Cc1cc(C(F)(F)C(F)(F)F)ccc1NC(=O)c1c(Cl)cccc1C(=O)N(C)Cc1ccccc1 [compound 1436] | – | – | – | A (100) | A (100) | A (100) | –
6 | Cc1cc(C(F)(F)C(F)(F)F)ccc1NC(=O)c1ccc(Cl)c(Cl)c1C(=O)NC(C)C [compound 1222, 3,4-dichloro-N^1-(4-pentafluoroethyl-2-methylphenyl)-N^2-isopropylphthalic acid diamide] | – | – | – | A (100) | A (100) | A (100) | –
7 | Cc1c(F)cccc1NC(=O)c1cccc([N+](=O)[O-])c1C(=O)NC(C)C [compound 674] | – | – | – | – | – | – | Insecticidal effect on rice leafroller (Test Example 3), judged grade [1]: A (100); Insecticidal effect on diamondback moth (Test Example 1), judged grade [2]: A (100); Insecticidal effect on common cutworm (Test Example 2), judged grade [3]: D (79-50)
8 | Cc1cc(C(F)(F)C(F)(F)F)ccc1NC(=O)c1cccc(Cl)c1C(=O)N(C)Cc1ccccc1 [compound 1406] | – | – | – | A (100) | A (100) | A (100) | –
9 | CC(C)NC(=O)c1c(C(=O)Nc2ccc([S+]([O-])C(F)(F)F)cc2)cccc1[N+](=O)[O-] (stereo not drawn) [compound 1000] | – | – | – | A (100) | A (100) | D (79-50) | –
10 | Cc1cc(C(F)(F)C(F)(F)F)ccc1NC(=O)c1cccc([N+](=O)[O-])c1C(=O)NC(C)C [compound 683] | – | – | – | – | – | – | Insecticidal effect on rice leafroller (Test Example 3), judged grade [1]: A (100); Insecticidal effect on diamondback moth (Test Example 1), judged grade [2]: A (100); Insecticidal effect on common cutworm (Test Example 2), judged grade [3]: A (100)
11 | Cc1cccc(NC(=O)c2cccc(Cl)c2C(=O)NC(C)C)c1C [compound 117] | A (100) | A (100) | A (100) | – | – | – | –
12 | CC(C)NC(=O)c1c(I)cccc1C(=O)Nc1ccc2c(c1Cl)OC(F)(F)C(F)O2 (racemic) [compound 1679] | – | – | – | – | – | – | Insecticidal effect (Test Example 3), judged from mortality [1, 4]: A (100); Insecticidal effect (Test Example 1), judged from mortality [2]: A (100); Insecticidal effect (Test Example 2), judged from mortality [3, 6]: A (100)
13 | CC(C)(C)NC(=O)c1c(I)cccc1C(=O)Nc1ccc(C(O)(C(F)(F)F)C(F)(F)F)cc1 [compound 1054] | – | – | – | A (100) | A (100) | A (100) | –
14 | Cc1c(NC(=O)c2cccc(Cl)c2C(=O)NC(C)C)cccc1OC(F)(F)C(F)Cl (stereo not drawn) [compound 142] | B (99-90) | A (100) | A (100) | – | – | – | –
15 | CC(C)NC(=O)c1c(I)cccc1C(=O)Nc1ccc(SC(F)F)cc1 [compound 354] | A (100) | A (100) | A (100) | – | – | – | –
16 | Cc1cc(OC(F)(F)F)ccc1NC(=O)c1cccc(I)c1C(=O)NC(C)(C)C [compound 957] | – | – | – | A (100) | A (100) | A (100) | –
17 | CCc1cc(C(F)(F)C(F)(F)F)ccc1NC(=O)c1cccc(Cl)c1C(=O)NC(C)C [compound 1495] | – | – | – | – | – | – | Insecticidal effect (Test Example 3), judged from mortality [1, 4]: A (100); Insecticidal effect (Test Example 1), judged from mortality [2]: A (100); Insecticidal effect (Test Example 2), judged from mortality [3, 6]: A (100)
18 | CCc1cc(C(F)(F)C(F)(F)F)ccc1NC(=O)c1cccc(Cl)c1C(=O)NC(C)(C)C [compound 1497] | – | – | – | – | – | – | Insecticidal effect (Test Example 3), judged from mortality [1, 4]: A (100); Insecticidal effect (Test Example 1), judged from mortality [2]: A (100); Insecticidal effect (Test Example 2), judged from mortality [3, 6]: A (100)

Row | SMILES | Insecticidal effect, Test Example 3 [1, 4] | Insecticidal effect, Test Example 1 [2, 5] | Insecticidal effect, Test Example 2 [3, 6] | Insecticidal effect, Test Example 3 [1, 7] | Insecticidal effect, Test Example 1 [2, 8] | Insecticidal effect, Test Example 2 [3, 9] | further results
19 | CC(C)NC(=O)c1c(Cl)cccc1C(=O)Nc1ccc(F)cc1F [compound 113] | A (100) | A (100) | B (99-90) | – | – | – | –
20 | Cc1cc(I)ccc1NC(=O)c1c(F)cccc1C(=O)NC(C)C [compound 547] | – | – | – | – | – | – | Insecticidal effect on rice leafroller (Test Example 3), judged grade [1]: D (79-50); Insecticidal effect on diamondback moth (Test Example 1), judged grade [2]: A (100); Insecticidal effect on common cutworm (Test Example 2), judged grade [3]: A (100)
21 | CC(C)NC(=O)c1c(F)cccc1C(=O)Nc1cccc(Cl)c1Cl [compound 488] | – | – | – | – | – | – | Insecticidal effect on rice leafroller (Test Example 3), judged grade [1]: A (100); Insecticidal effect on diamondback moth (Test Example 1), judged grade [2]: A (100); Insecticidal effect on common cutworm (Test Example 2), judged grade [3]: A (100)
22 | Cc1cc(OC(F)(F)C(Cl)(Cl)Cl)ccc1NC(=O)c1cccc(Cl)c1C(=O)NC(C)C [compound 129] | A (100) | A (100) | A (100) | – | – | – | –
23 | CC(C)NC(=O)c1c(F)cccc1C(=O)Nc1ccc(Oc2ccc(C(F)(F)F)cc2Cl)cc1F [compound 901] | – | – | – | – | – | – | Insecticidal effect on rice leafroller (Test Example 3), judged grade [1]: A (100); Insecticidal effect on diamondback moth (Test Example 1), judged grade [2]: A (100); Insecticidal effect on common cutworm (Test Example 2), judged grade [3]: D (79-50)
24 | Cc1cc(Cl)ccc1NC(=O)c1cccc(F)c1C(=O)NC(C)C [compound 490] | – | – | – | – | – | – | Insecticidal effect on rice leafroller (Test Example 3), judged grade [1]: A (100); Insecticidal effect on diamondback moth (Test Example 1), judged grade [2]: A (100); Insecticidal effect on common cutworm (Test Example 2), judged grade [3]: A (100)
25 | C#CCNC(=O)c1c(I)cccc1C(=O)Nc1ccc(C(F)(F)C(F)(F)F)cc1C [compound 989] | – | – | – | A (100) | A (100) | A (100) | –
26 | CC(C)(C)NC(=O)c1c(I)cccc1C(=O)Nc1ccc(C(F)(F)C(F)(F)F)cc1Br [compound 1562] | – | – | – | – | – | – | Insecticidal effect (Test Example 3), judged from mortality [1, 4]: A (100); Insecticidal effect (Test Example 1), judged from mortality [2]: A (100); Insecticidal effect (Test Example 2), judged from mortality [3, 6]: A (100)
27 | CNC(=O)c1c(I)cccc1C(=O)Nc1ccc(C(F)(F)C(F)(F)F)cc1C [compound 1311] | – | – | – | A (100) | A (100) | A (100) | –
28 | Cc1cc(OC(F)(F)C(F)Cl)ccc1NC(=O)c1cccc(I)c1C(=O)NC(C)C (stereo not drawn) [compound 392] | A (100) | A (100) | A (100) | – | – | – | –
29 | Cc1cc(C(F)(F)C(F)(F)F)ccc1NC(=O)c1ccccc1C(=O)NC(C)C [compound 55] | A (100) | A (100) | B (99-90) | – | – | – | –
30 | CC(C)NC(=O)c1c(I)cccc1C(=O)Nc1ccc(Br)cc1 [compound 346] | A (100) | A (100) | C (89-80) | – | – | – | –
31 | Cc1cc(C(F)(C(F)(F)F)C(F)(F)F)ccc1NC(=O)c1cccc(I)c1C(=O)NC(C)(C)C [compound 1039] | – | – | – | A (100) | A (100) | A (100) | –
32 | CCN(CC)C(=O)c1c(F)cccc1C(=O)Nc1ccc(C(F)(F)C(F)(F)F)cc1C [compound 1525] | – | – | – | – | – | – | Insecticidal effect (Test Example 3), judged from mortality [1, 4]: A (100); Insecticidal effect (Test Example 1), judged from mortality [2]: A (100); Insecticidal effect (Test Example 2), judged from mortality [3, 6]: A (100)
33 | CCN(CC)C(=O)c1c(F)cccc1C(=O)Nc1ccc(C(F)(F)C(F)(F)F)cc1Cl [compound 1531] | – | – | – | – | – | – | Insecticidal effect (Test Example 3), judged from mortality [1, 4]: A (100); Insecticidal effect (Test Example 1), judged from mortality [2]: A (100); Insecticidal effect (Test Example 2), judged from mortality [3, 6]: A (100)
34 | Cc1cc(OC(F)F)ccc1NC(=O)c1ccc(Cl)cc1C(=O)NC(C)C [compound 180] | A (100) | A (100) | A (100) | – | – | – | –
35 | CC(C)NC(=O)c1c(F)cccc1C(=O)Nc1ccc(SC(F)(F)C(F)(F)Br)cc1 [compound 480] | – | – | – | – | – | – | Insecticidal effect on rice leafroller (Test Example 3), judged grade [1]: A (100); Insecticidal effect on diamondback moth (Test Example 1), judged grade [2]: A (100); Insecticidal effect on common cutworm (Test Example 2), judged grade [3]: B (99-90)
36 | Cc1cc(C(F)(F)C(F)(F)F)ccc1NC(=O)c1cccc(C)c1C(=O)NC(C)(C)C [compound 955] | – | – | – | A (100) | A (100) | A (100) | –

— patent US6362369B1, “Phthalic acid diamide derivatives fluorine-containing aniline compounds as starting material, agricultural and horticultural insecticides, and a method for application of the insecticides” (Nihon Nohyaku Co., Ltd., priority 1997, dated 2002)
